From patent US20070209950A1, “METHODS AND DEVICES FOR THE DETECTION AND MEASUREMENT OF FREE METALS IN FLUIDS AND METHODS FOR DIAGNOSING METAL-RELATED DISEASES AND FOR DETERMINING PHARMACOLOGIC DOSING REGIMENS” (priority 2006, published 2007)

Tests used:
[1] = target: apo-glucose dehydrogenase (Acinetobacter calcoaceticus, UniProt P13650); test: activation of apo-glucose dehydrogenase by co-factor PQQ, electrochemical current; assay type: biochemical
Excerpt: FIG. 8 is a schematic showing a specific example of glucose being oxidized to gluconone by the holo-enzyme glucose dehydrogenase. In this case the co-enzyme is PQQ and a common mediator used to transducer electrical current through a working electrode is ferrocene. This is another type of configuration in glucometers today.
FIG. 9 is a schematic showing the loss of glucose dehydrogenase activity when the specific co-factor PQQ is removed. As an apo-enzyme, […] is not capable of oxidizing glucose. As a result, transduction of current is blocked.
PQQ was added to apo-enzyme in doses ranging from 100 pM to 100 nM. […] In this case, distinctions were observed by 60 sec.

ceruloplasmin = target: T1, ceruloplasmin (Homo sapiens, UniProt P00450); details: order of magnitude; read-out: Kd for copper bound to ceruloplasmin; cited from earlier work
T1 sequence (P00450 20-1065): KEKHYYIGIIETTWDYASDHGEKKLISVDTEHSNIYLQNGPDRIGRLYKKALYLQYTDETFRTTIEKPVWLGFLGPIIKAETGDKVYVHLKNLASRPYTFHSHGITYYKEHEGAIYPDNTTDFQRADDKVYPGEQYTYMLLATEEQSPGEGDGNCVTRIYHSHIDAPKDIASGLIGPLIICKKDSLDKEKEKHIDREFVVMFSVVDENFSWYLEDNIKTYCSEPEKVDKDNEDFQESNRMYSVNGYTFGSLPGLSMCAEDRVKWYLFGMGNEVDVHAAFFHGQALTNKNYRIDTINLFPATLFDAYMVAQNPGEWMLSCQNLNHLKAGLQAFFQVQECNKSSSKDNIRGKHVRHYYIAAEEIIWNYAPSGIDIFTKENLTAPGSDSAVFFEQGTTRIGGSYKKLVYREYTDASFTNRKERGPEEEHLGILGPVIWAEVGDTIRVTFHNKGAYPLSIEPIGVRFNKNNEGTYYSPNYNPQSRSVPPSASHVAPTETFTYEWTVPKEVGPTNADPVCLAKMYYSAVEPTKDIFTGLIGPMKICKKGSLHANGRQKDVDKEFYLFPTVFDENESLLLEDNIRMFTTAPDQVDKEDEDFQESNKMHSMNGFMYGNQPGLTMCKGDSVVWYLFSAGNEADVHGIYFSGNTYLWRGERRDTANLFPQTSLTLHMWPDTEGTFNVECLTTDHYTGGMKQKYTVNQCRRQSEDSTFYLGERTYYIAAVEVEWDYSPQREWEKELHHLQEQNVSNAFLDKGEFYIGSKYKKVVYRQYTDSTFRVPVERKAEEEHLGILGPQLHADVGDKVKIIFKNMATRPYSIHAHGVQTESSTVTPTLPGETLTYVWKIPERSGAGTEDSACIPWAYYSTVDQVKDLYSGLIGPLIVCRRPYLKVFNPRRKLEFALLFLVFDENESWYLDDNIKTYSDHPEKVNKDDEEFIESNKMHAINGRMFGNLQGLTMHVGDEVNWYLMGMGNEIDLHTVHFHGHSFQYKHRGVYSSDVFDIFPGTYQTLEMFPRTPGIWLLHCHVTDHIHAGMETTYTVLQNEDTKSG

Sequence of apo-glucose dehydrogenase (P13650 25-478): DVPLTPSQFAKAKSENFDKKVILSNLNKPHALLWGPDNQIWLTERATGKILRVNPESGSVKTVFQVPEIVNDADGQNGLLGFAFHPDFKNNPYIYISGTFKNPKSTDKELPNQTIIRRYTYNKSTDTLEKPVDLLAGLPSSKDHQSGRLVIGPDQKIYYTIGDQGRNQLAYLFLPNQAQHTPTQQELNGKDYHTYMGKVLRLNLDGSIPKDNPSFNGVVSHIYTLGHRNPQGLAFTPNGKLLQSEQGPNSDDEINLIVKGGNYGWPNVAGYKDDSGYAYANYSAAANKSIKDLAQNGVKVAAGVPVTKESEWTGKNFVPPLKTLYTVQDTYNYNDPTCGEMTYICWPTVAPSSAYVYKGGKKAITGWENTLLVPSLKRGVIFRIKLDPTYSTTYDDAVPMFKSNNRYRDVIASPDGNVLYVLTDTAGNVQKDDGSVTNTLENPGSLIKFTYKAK

Row | SMILES | outward current on addition of co-factor ([1]; FIG. 10, with PQQ) | outward current on addition of co-factor ([1]; FIG. 17, PQQ added to apo-enzyme in doses from 100 pM to 100 nM) | Kd (ceruloplasmin) [nM]
1 | O=C(O)c1cc(C(=O)O)c2c(n1)C(=O)C(=O)c1cc(C(=O)O)[nH]c1-2 [PQQ] | outward current (more negative) results | increase in the measurement of outward current | –
2 | [Cu] [copper] | – | – | ~0.01
